From paper PMC9067983, “Identification of highly selective type II kinase inhibitors with chiral peptidomimetic tails” (Journal of Enzyme Inhibition and Medicinal Chemistry, 2022)
Where a SMILES comes first, the peptide text is derived from it. [ ]: non-standard residue; d: D form. The star is where a group is joined. X1 = Cc1ccc(Nc2ncc3c(n2)N(C)C(=O)N(c2cc(C(=O)*)ccc2C)C3)cn1; Aib = CC(C)(N)C(=O)O

Experiments:
Experiment in all cases: kinase selectivity profiling
Type in all cases: biochemical
Conditions in all cases: 10µM ATP, read-out: % inhibition (relative to DMSO)
ARAF = target: T1, ARAF (Homo sapiens, UniProt P10398)
T1 construct: purchased Reaction Biology Corp
Experimental: (§1) Full panel kinase profiling and kinase IC50 measurement were performed by using Reaction Biology Corp. (San Diego, USA).

ASK1/MAP3K5 = target: T2, ASK1/MAP3K5 (Homo sapiens, UniProt Q99683)
T2 construct: purchased Reaction Biology Corp
Experimental: as §1

BRK = target: T3, BRK (Homo sapiens, UniProt Q13882)
T3 construct: purchased Reaction Biology Corp
T3 sequence (Q13882 whole entry): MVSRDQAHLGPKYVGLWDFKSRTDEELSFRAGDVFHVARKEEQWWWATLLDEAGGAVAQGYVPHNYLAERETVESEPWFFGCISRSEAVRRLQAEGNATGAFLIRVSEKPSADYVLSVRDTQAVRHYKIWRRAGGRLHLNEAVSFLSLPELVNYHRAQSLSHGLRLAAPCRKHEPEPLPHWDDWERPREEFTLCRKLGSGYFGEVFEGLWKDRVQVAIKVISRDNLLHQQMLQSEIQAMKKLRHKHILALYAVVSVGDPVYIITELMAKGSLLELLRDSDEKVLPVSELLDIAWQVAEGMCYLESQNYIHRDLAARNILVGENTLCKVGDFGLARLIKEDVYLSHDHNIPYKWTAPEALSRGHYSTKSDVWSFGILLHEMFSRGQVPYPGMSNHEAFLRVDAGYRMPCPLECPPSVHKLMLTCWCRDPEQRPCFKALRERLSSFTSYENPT
Experimental: as §1

BTK = target: T4, BTK (Homo sapiens, UniProt Q06187)
T4 construct: purchased Reaction Biology Corp
Experimental: as §1

CDK1/cyclin A = target: T5, CDK1/cyclin A (Homo sapiens, UniProt P06493)
T5 construct: purchased Reaction Biology Corp
Experimental: as §1

CDK4/cyclin D1 = target: T6, CDK4/cyclin D1 (Homo sapiens, UniProt P11802)
T6 construct: purchased Reaction Biology Corp
T6 sequence (P11802 whole entry): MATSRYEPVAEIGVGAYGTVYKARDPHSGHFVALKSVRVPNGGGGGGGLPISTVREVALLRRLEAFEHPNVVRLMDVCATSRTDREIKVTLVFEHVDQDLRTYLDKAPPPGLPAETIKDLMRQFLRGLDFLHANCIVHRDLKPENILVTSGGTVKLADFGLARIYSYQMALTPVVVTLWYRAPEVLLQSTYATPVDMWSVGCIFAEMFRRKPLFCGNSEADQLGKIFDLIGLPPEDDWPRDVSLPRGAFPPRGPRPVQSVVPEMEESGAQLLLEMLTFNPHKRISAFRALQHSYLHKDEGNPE
T6 sequence (P24385 whole entry partner): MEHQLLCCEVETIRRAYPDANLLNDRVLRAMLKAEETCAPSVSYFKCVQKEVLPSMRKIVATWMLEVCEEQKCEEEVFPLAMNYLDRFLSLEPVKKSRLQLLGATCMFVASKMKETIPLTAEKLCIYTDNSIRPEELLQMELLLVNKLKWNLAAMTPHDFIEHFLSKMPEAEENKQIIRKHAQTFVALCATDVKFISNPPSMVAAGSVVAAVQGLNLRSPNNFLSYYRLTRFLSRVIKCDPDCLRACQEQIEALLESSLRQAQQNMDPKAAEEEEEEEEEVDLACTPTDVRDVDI
Experimental: as §1

CLK3 = target: T7, CLK3 (Homo sapiens, UniProt P49761)
T7 construct: purchased Reaction Biology Corp
Experimental: as §1

DAPK2 = target: T8, DAPK2 (Homo sapiens, UniProt Q9UIK4)
T8 construct: purchased Reaction Biology Corp
Experimental: as §1

DLK/MAP3K12 = target: T9, DLK/MAP3K12 (Homo sapiens, UniProt Q12852)
T9 construct: purchased Reaction Biology Corp
Experimental: as §1

DRAK1/STK17A = target: T10, DRAK1/STK17A (Homo sapiens, UniProt Q9UEE5)
T10 construct: purchased Reaction Biology Corp
Experimental: as §1

EGFR = target: T11, EGFR (Homo sapiens, UniProt P00533)
T11 construct: purchased Reaction Biology Corp
Experimental: as §1

ERK7/MAPK15 = target: T12, ERK7/MAPK15 (Homo sapiens, UniProt Q8TD08)
T12 construct: purchased Reaction Biology Corp
Experimental: as §1

FLT1/VEGFR1 = target: T13, FLT1/VEGFR1 (Homo sapiens, UniProt P17948)
T13 construct: purchased Reaction Biology Corp
Experimental: as §1

GLK/MAP4K3 = target: T14, GLK/MAP4K3 (Homo sapiens, UniProt Q8IVH8)
T14 construct: purchased Reaction Biology Corp
Experimental: as §1

GRK1 = target: T15, GRK1 (Homo sapiens, UniProt Q15835)
T15 construct: purchased Reaction Biology Corp
Experimental: as §1

GRK7 = target: T16, GRK7 (Homo sapiens, UniProt Q8WTQ7)
T16 construct: purchased Reaction Biology Corp
T16 sequence (Q8WTQ7 whole entry): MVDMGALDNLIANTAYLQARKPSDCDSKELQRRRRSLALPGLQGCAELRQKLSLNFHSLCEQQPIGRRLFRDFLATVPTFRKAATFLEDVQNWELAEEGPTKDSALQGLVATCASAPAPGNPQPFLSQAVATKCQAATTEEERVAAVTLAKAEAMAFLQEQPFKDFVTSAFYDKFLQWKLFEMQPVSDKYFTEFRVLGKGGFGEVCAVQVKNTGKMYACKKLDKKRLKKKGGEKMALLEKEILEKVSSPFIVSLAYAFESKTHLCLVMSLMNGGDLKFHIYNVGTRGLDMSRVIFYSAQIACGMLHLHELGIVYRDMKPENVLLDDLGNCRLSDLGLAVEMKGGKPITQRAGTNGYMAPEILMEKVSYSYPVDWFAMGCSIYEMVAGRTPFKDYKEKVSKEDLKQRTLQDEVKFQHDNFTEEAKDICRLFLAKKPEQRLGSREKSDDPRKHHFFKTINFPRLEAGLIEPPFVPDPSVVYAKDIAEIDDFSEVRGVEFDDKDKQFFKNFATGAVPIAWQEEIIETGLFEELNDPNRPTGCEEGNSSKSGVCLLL
Experimental: as §1

HIPK1 = target: T17, HIPK1 (Homo sapiens, UniProt Q86Z02)
T17 construct: purchased Reaction Biology Corp
Experimental: as §1

IKKb/IKBKB = target: T18, IKKb/IKBKB (Homo sapiens, UniProt O14920)
T18 construct: purchased Reaction Biology Corp
Experimental: as §1

LATS2 = target: T19, LATS2 (Homo sapiens, UniProt Q9NRM7)
T19 construct: purchased Reaction Biology Corp
Experimental: as §1

MEKK2 = target: T20, MEKK2 (Homo sapiens, UniProt Q9Y2U5)
T20 construct: purchased Reaction Biology Corp
T20 sequence (Q9Y2U5 whole entry): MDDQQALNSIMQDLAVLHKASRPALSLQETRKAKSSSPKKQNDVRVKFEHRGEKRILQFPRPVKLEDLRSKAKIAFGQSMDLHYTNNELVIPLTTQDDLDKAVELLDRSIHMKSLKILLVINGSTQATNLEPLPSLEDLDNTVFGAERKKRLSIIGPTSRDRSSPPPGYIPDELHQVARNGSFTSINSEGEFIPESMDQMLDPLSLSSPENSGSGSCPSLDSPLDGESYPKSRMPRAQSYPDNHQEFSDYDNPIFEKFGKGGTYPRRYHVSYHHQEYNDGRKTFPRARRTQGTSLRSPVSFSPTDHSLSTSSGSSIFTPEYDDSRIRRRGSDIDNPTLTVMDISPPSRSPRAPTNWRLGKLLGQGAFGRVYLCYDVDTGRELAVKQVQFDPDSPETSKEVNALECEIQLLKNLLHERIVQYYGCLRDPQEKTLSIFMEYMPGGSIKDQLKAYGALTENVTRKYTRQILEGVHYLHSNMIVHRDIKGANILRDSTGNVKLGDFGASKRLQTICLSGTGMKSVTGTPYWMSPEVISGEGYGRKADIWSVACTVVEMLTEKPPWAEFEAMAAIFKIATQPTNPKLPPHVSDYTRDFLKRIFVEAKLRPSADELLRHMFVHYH
Experimental: as §1

MEKK6 = target: T21, MEKK6 (Homo sapiens, UniProt O95382)
T21 construct: purchased Reaction Biology Corp
Experimental: as §1

MSK2/RPS6KA4 = target: T22, MSK2/RPS6KA4 (Homo sapiens, UniProt O75676)
T22 construct: purchased Reaction Biology Corp
Experimental: as §1

MST2/STK3 = target: T23, MST2/STK3 (Homo sapiens, UniProt Q13188)
T23 construct: purchased Reaction Biology Corp
T23 sequence (Q13188 whole entry): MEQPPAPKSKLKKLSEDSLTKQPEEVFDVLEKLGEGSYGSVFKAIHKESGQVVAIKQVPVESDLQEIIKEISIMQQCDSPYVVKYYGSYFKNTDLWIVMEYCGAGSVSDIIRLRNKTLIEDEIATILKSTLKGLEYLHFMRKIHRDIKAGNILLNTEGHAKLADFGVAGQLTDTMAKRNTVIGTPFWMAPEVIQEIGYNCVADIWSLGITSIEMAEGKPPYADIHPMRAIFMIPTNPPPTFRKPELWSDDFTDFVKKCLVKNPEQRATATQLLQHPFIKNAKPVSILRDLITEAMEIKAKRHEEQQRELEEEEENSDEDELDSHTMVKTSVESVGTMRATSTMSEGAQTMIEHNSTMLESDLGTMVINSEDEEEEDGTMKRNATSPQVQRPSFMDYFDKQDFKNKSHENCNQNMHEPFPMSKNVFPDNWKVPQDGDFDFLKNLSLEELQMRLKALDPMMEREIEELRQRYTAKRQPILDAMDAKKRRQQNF
Experimental: as §1

NEK3 = target: T24, NEK3 (Homo sapiens, UniProt P51956)
T24 construct: purchased Reaction Biology Corp
Experimental: as §1

NEK9 = target: T25, NEK9 (Homo sapiens, UniProt Q8TD19)
T25 construct: purchased Reaction Biology Corp
Experimental: as §1

PHKg1 = target: T26, PHKg1 (Homo sapiens, UniProt Q16816)
T26 construct: purchased Reaction Biology Corp
Experimental: as §1

PIM1 = target: T27, PIM1 (Homo sapiens, UniProt P11309)
T27 construct: purchased Reaction Biology Corp
Experimental: as §1

PKCd = target: T28, PKCd (Homo sapiens, UniProt Q05655)
T28 construct: purchased Reaction Biology Corp
Experimental: as §1

PKD2/PRKD2 = target: T29, PKD2/PRKD2 (Homo sapiens, UniProt Q9BZL6)
T29 construct: purchased Reaction Biology Corp
Experimental: as §1

PKMYT1 = target: T30, PKMYT1 (Homo sapiens, UniProt Q99640)
T30 construct: purchased Reaction Biology Corp
Experimental: as §1

PKN3/PRK3 = target: T31, PKN3/PRK3 (Homo sapiens, UniProt Q6P5Z2)
T31 construct: purchased Reaction Biology Corp
Experimental: as §1

PLK3 = target: T32, PLK3 (Homo sapiens, UniProt Q9H4B4)
T32 construct: purchased Reaction Biology Corp
Experimental: as §1

RET = target: T33, RET (Homo sapiens, UniProt P07949)
T33 construct: purchased Reaction Biology Corp
Experimental: as §1

RIPK4 = target: T34, RIPK4 (Homo sapiens, UniProt P57078)
T34 construct: purchased Reaction Biology Corp
Experimental: as §1

STK21/CIT = target: T35, STK21/CIT (Homo sapiens, UniProt O14578)
T35 construct: purchased Reaction Biology Corp
Experimental: as §1

STK32B/YANK2 = target: T36, STK32B/YANK2 (Homo sapiens, UniProt Q9NY57)
T36 construct: purchased Reaction Biology Corp
Experimental: as §1

STK38L/NDR2 = target: T37, STK38L/NDR2 (Homo sapiens, UniProt Q9Y2H1)
T37 construct: purchased Reaction Biology Corp
Experimental: as §1

TAOK3/JIK = target: T38, TAOK3/JIK (Homo sapiens, UniProt Q9H2K8)
T38 construct: purchased Reaction Biology Corp
T38 sequence (Q9H2K8 whole entry): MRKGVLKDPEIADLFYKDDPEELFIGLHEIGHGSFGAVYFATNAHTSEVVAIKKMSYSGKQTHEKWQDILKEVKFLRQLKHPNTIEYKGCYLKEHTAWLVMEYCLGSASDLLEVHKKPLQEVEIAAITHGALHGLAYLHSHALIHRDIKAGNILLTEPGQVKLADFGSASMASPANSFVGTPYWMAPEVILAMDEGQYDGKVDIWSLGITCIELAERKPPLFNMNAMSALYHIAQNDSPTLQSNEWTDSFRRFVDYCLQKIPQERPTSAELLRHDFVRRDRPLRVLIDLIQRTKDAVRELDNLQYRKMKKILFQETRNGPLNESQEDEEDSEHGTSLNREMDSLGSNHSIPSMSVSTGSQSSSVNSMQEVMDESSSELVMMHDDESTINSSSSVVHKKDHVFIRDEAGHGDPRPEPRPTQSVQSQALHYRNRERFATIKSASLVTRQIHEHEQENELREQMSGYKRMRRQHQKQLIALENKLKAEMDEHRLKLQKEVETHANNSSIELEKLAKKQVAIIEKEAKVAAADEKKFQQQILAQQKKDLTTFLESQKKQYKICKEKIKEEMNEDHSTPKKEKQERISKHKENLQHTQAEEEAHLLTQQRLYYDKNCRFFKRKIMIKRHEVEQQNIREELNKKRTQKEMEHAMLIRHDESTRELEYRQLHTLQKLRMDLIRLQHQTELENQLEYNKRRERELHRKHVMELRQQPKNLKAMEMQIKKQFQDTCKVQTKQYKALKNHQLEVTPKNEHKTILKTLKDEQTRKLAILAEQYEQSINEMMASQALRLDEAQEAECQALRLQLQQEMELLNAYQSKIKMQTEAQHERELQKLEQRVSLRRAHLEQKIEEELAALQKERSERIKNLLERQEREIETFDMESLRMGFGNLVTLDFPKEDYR
Experimental: as §1

TIE2/TEK = target: T39, TIE2/TEK (Homo sapiens, UniProt Q02763)
T39 construct: purchased Reaction Biology Corp
Experimental: as §1

TNIK = target: T40, TNIK (Homo sapiens, UniProt Q9UKE5)
T40 construct: purchased Reaction Biology Corp
T40 sequence (Q9UKE5 whole entry): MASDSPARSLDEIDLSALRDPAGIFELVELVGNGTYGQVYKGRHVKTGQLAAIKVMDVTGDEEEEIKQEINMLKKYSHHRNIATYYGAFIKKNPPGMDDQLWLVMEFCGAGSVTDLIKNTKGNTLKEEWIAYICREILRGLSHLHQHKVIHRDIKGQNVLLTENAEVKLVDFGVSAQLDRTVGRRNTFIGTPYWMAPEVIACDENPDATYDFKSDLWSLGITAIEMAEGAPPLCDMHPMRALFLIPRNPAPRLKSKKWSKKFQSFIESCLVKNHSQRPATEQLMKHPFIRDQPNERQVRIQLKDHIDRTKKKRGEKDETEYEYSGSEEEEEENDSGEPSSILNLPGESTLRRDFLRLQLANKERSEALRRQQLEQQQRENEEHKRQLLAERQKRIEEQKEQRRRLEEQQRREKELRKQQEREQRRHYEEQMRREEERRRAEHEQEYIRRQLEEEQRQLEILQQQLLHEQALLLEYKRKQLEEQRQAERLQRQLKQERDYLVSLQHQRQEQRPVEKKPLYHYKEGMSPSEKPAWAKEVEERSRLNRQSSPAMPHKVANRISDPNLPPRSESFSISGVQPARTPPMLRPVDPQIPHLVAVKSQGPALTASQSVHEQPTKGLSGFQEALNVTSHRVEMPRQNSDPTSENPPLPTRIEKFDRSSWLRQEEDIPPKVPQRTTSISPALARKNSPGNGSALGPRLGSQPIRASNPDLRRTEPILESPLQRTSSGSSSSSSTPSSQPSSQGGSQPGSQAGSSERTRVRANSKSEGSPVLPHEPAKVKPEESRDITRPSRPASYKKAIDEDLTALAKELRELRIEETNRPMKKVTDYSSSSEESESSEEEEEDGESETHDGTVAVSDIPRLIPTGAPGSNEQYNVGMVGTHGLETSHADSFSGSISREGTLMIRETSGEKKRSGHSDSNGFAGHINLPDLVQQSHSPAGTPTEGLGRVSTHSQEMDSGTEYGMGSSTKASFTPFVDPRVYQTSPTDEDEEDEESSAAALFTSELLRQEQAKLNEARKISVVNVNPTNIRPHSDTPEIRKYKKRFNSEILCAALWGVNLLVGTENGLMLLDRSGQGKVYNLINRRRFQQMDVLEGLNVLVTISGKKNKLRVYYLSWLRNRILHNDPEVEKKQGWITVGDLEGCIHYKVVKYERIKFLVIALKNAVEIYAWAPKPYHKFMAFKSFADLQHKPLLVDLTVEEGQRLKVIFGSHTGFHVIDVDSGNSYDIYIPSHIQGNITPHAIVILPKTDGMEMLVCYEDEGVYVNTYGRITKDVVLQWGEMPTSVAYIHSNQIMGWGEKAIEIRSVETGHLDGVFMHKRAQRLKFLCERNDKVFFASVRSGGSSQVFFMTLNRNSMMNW
Experimental: as §1

c-Kit = target: T41, c-Kit (Homo sapiens, UniProt P10721)
T41 construct: purchased Reaction Biology Corp
Experimental: as §1

c-MET = target: T42, c-MET (Homo sapiens, UniProt P08581)
T42 construct: purchased Reaction Biology Corp
Experimental: as §1

SMILES: Cc1ccc(Nc2ncc3c(n2)N(C)C(=O)N(c2cc(C(=O)N[C@H](C(=O)N4CCC[C@H]4C(=O)NC(C)(C)C(=O)N[C@@H](CC(C)C)C(=O)N(C)C)C(C)C)ccc2C)C3)cn1 [7a, (S)-N-(1-(((S)-1-(dimethylamino)-4-methyl-1-oxopentan-2-yl)amino)-2-methyl-1-oxopropan-2-yl)-1-((4-methyl-3-(1-methyl-7-((6-methylpyridin-3-yl)amino)-2-oxo-1,4-dihydropyrimido[4,5-d]pyrimidin-3(2H)-yl)benzoyl)-L-valyl)pyrrolidine-2-carboxamide] (X1-VP[Aib]L-NMe2)
- inhibition at 1 µM (ARAF): 34%
- inhibition at 1 µM (ASK1/MAP3K5): 0%
- inhibition at 1 µM (BRK): 0%
- inhibition at 1 µM (BTK): 6%
- inhibition at 1 µM (CDK1/cyclin A): 0%
- inhibition at 1 µM (CDK4/cyclin D1): 0%
- inhibition at 1 µM (CLK3): 17%
- inhibition at 1 µM (DAPK2): 1%
- inhibition at 1 µM (DLK/MAP3K12): 0%
- inhibition at 1 µM (DRAK1/STK17A): 0%
- inhibition at 1 µM (EGFR): 0%
- inhibition at 1 µM (ERK7/MAPK15): 3%
- inhibition at 1 µM (FLT1/VEGFR1): 9%
- inhibition at 1 µM (GLK/MAP4K3): 9%
- inhibition at 1 µM (GRK1): 0%
- inhibition at 1 µM (GRK7): 0%
- inhibition at 1 µM (HIPK1): 0%
- inhibition at 1 µM (IKKb/IKBKB): 0%
- inhibition at 1 µM (LATS2): 1%
- inhibition at 1 µM (MEKK2): 0%
- inhibition at 1 µM (MEKK6): 0%
- inhibition at 1 µM (MSK2/RPS6KA4): 9%
- inhibition at 1 µM (MST2/STK3): 7%
- inhibition at 1 µM (NEK3): 0%
- inhibition at 1 µM (NEK9): 8%
- inhibition at 1 µM (PHKg1): 7%
- inhibition at 1 µM (PIM1): 2%
- inhibition at 1 µM (PKCd): 0%
- inhibition at 1 µM (PKD2/PRKD2): 0%
- inhibition at 1 µM (PKMYT1): 8%
- inhibition at 1 µM (PKN3/PRK3): 8%
- inhibition at 1 µM (PLK3): 3%
- inhibition at 1 µM (RET): 9%
- inhibition at 1 µM (RIPK4): 15%
- inhibition at 1 µM (STK21/CIT): 0%
- inhibition at 1 µM (STK32B/YANK2): 16%
- inhibition at 1 µM (STK38L/NDR2): 4%
- inhibition at 1 µM (TAOK3/JIK): 0%
- inhibition at 1 µM (TIE2/TEK): 0%
- inhibition at 1 µM (TNIK): 6%
- inhibition at 1 µM (c-Kit): 27%
- inhibition at 1 µM (c-MET): 14%
